# Counter-ions that a name gives are not always drawn. Like-named read-outs stand apart in the source and are kept apart here.
# What was measured:
# [1] = Curing of unsaturated polyester-styrene resin
# [2] = Polymerization of styrene, dilatometer rates; details: rate at 10% conversion
# Method: A solution of styrene containing 5 × 10^-^4 moles per deciliter of alpha-(tert.-butylazo)isobutyronitrile was heated at 85° C. and the change in density, which is a measure of polymer formation, was followed by means of a dilatometer to measure polymerization rates at 5% and 10% conversion to polystyrene. […] Without the alpha-(tert.-butylazo)-isobutyronitrile, the 5 and 10% rates were 0.92 × 10^-^3 moles per liter per minute. Thus, this azo compound initiated the polymerization of styrene at 85° C.
# The procedure of Example II was used at 85° C. and 100° C. […] Without the 1-tert.-butylazo-1-cyanocyclohexane, the 5% and 10% rates at 100° C. were 2.81 × 10^-^3 moles per liter per minute.
# A solution of styrene containing 5×10^^-4 moles per deciliter of the tert.-alkyl-α-substituted-azoalkane was heated in a constant temperature oil bath (the temperature of the bath depending on the thermal stability of the individual azo compounds) and the change in density, which is a measure of polymer formation, was followed by means of a dilatometer to measure polymerization rates (Rp) at 5% and 10% conversion to polystyrene. The rates obtained at 5% and 10% conversion are recorded in moles per liter per minute in Table LXXXII for the individual azo compounds. Their rate at 10% conversion (f1) is divided by the rate of a standard (f2) at the same temperature and concentration to give an efficiency rating f1 / f2.
# [3] = Thermal decomposition half-life; format: physicochemical
# Method: (§1) It produces 179 cc. of gas per gram at 110° C. The following half-life data have been determined:
# The following half-life data have been determined by gas evolution technique using trichlorobenzene as the solvent: […]
# [4] = Curing of unsaturated polyester-styrene resin; remark: listed apart in the source
# Method: An unsaturated polyester resin was made by reacting maleic anhydride (1.0 mole), phthalic anhydride (1.0 mole), and propylene glycol (2.2 moles) until an acid number of 45-50 was obtained. To this was added hydroquinone at a 0.013% concentration. Seven parts of this unsaturated polyester was diluted with 3 parts of monomeric styrene to obtain a homogeneous blend having a viscosity of 13.08 poise and a specific gravity of 1.14.
# To 20 grams of this blend was added 0.128 gram of alpha-(tert.-butylazo)isobutyronitrile and the resultant composition placed in a constant temperature bath at 212° F. (100° C.). […] At 180° F. (82.2° C.), a peak exotherm of 381° F. (193.9° C.) was obtained in 13.3 minutes. The resultant cured materials were very hard.
# The procedure of Example III was used at 212° F. (100° C.) and 240° F. (115.6° C.) where peak exotherms of 414° F. (212.2° C.) and 440° F. (226.7° C.) were obtained after 10.0 and 5.3 minutes respectively using 0.2 gram of the 1-tert.-butylazo-1-cyanocyclohexane. The resultant cured resins were very hard.
# The curing procedure and resin are described in Example III.
# [5] = Gas volume generated on thermal decomposition; format: physicochemical; details: 130° C.
# Method: as §1
# It produces 146 cc. of gas per gram at 130° C.
# [6] = Preliminary toxicological studies / toxicity
# [7] = High pressure polymerization of ethylene
# [8] = Solubility; format: physicochemical; details: petroleum and other organic solvents
# [9] = Emulsion polymerization of ethyl acrylate; details: 3.65 × 10^-^4 moles initiator, 85°-87° C.
# Method: An emulsion containing 50 g. of deionized water, 40 g. ethyl acrylate, 4.8 g. Triton X-200, Rohm & Haas anionic surfactant, and 0.0769 g. (3.65 × 10^-^4 moles) α-tert-butylazo-α-methyl-γ-carboxy-butyronitrile (from Example X) was prepared. Approximately 25 g. of the emulsion was placed in a 250 ml. 4-neck round bottom flask equipped with a mechanical stirrer, thermometer and condenser. Nitrogen was passed through the system and the contents of the flask were heated to the reflux temperature of 82° C. When the temperature rose to 90° C., indicating polymerization was occurring, the balance of the emulsion was slowly added from a self-venting addition funnel, maintaining the temperature at 85°-87° C. At the end of the addition the temperature was raised to 95° C. for 5 minutes, a very small amount of hydroquinone added and the reaction cooled to room temperature. The total reaction times was 11/3 hours. The final pH was 3.6. A 5 g. aliquot was weighed into a tared dish and the monomers and water evaporated and the conversion of monomer to polymer was determined to be 94%.
# A similar polymerization was run under the same conditions using 3.65 × 10^-^4 moles of the sodium salt of α-tert-butylazo-α-methyl-γ-carboxybutyronitrile as the initiator. The conversion was 92.3% and the final pH was 6.6.
# [10] = cited from earlier work
# [11] = commercial compound, background statement; cited from earlier work
# [12] = Oxidation of iodide ion to free iodine
# [13] = 180° F. (82.2° C.), 0.128 gram in 20 grams blend
# [14] = bath 212° F. (100° C.), 0.128 gram in 20 grams blend
# [15] = 180° F. (82.2° C.), 1.0 weight per cent
# [16] = room temperature, 1.0 weight per cent
# [17] = 85° C., standard f2 benzoyl peroxide
# [18] = 240° F. (115.6° C.), 1.0 weight per cent
# [19] = 265° F. (129.4° C.), 1.0 weight per cent
# [20] = 212° F. (100° C.), 1.0 weight per cent
smiles,measurement,setting,value
"CC(C)(C)N=NC1=CCCCC1 [XXIII, 1(-tert.-butylazo)cyclohexene]",temperature at which it evolves nitrogen,,60 °C
same,gelling of resin,[1]; room temperature,gelled
"CC(C)CC(C)(N=NC(C)(C)C)c1ccccc1 (centres unmarked) [Example LXII, 2-t-Butylazo-2-phenyl-4-methylpentane]",f1 /f2 efficiency rating,"[2]; 70° C., standard f2 benzoyl peroxide",1.41
"CC(C)(C)N=NC1(C#N)CCCCC1 [Example IV, 1-tert.-butylazo-1-cyanocyclohexane]",t 1/2,[3]; 96.3° C.,10.0 h
same,t 1/2,[3]; 100° C.,6.7 h
same,t 1/2,[3]; 110° C.,2.3 h
same,t 1/2,[3]; 120° C.,.75 h
same,hardness of cured resin,[4],very hard
same,peak exotherm,"[4]; 212° F. (100° C.), 0.2 gram",414 ° F.
same,time to peak exotherm,"[4]; 212° F. (100° C.), 0.2 gram",10.0 min
same,peak exotherm,"[4]; 240° F. (115.6° C.), 0.2 gram",440 ° F.
same,time to peak exotherm,"[4]; 240° F. (115.6° C.), 0.2 gram",5.3 min
same,gas produced,[5],146 cc. of gas per gram
same,toxicity relative to IXA and its decomposition residue,[6],significantly less toxic
same,initiator performance,[7],especially advantageous initiators
"CC(C)(C)N=NC(C)(C)C#N [Example I, Alpha-(tert.-butylazo)isobutyronitrile]",t 1/2,[3]; 70° C.,40.5 h
same,hardness of cured resin,[4],very hard
same,peak exotherm,[4]; [13],381 ° F.
same,time to peak exotherm,[4]; [13],13.3 min
same,quality of cure,[4]; 212° F. (100° C.),excellent cure
same,peak exotherm,[4]; [14],424 ° F.
same,time to peak exotherm,[4]; [14],4.9 min
same,solubility,[8],soluble in petroleum solvents
same,toxicity relative to IXA and its decomposition residue,[6],significantly less toxic
same,initiator performance,[7],especially advantageous initiators
"CC(C)(C)N=NC(=O)C(C)(C)C [Example XIX, Pivaloyl tert.-butyldiimide]",temperature at which it evolves nitrogen,,35 °C
same,hardness of cured resin,[4],very hard
same,peak exotherm,[4]; [15],289 ° F.
same,time to peak exotherm,[4]; [15],4.9 min
same,time to peak exotherm,[4]; [16],34.1 min
same,peak exotherm,[1]; [16],139 ° F.
"CC(C)(C)N=NC1(N=[N+]=[N-])CCCCC1 [XLI, 1-t-butylazo-1-azidocyclohexane]",f1 /f2 efficiency rating,"[2]; 100° C., standard f2 t-butyl perbenzoate",0.58
CC(C)(C)N=NC(C)(C#N)CCC(=O)O (stereo not drawn) [sodium salt of α-tert-butylazo-α-methyl-γ-carboxybutyronitrile],conversion of monomer to polymer,[9],92.3%
"CC(C)(C)N=NC1(c2ccccc2)CCCCC1 [Example LXIII, 1-t-Butylazo-1-phenylcyclohexane]",Barcol Hardness,[4]; bath 100° C.,35
same,Minutes to Peak Exotherm,[4]; bath 100° C.,4.8 min
same,peak exotherm,[4]; bath 100° C.,435 ° F
same,f1 /f2 efficiency rating,[2]; [17],1.32
"CC(C)(C#N)N=NC(C)(C)C#N [2, 2'-AZOBISISOBUTYRONITRILE]",solubility,"[10]; common organic solvents: aromatic hydrocarbons, dioxane, alcohol, ether, carbon tetrachloride",very low or limited solubility
same,solubility,[10]; petroleum hydrocarbon solvents,insoluble
same,toxicity,[11],toxic solid
"CC(C)(N=NC(N)=O)c1ccccc1 [XVIII, Tert.-cumylazoformamide]",gas/nitrogen evolution or decomposition,room temperature or on melting,rapidly evolves nitrogen upon melting
same,hardness of cured resin,[4],very hard
same,peak exotherm,[4]; [18],422 ° F.
same,time to peak exotherm,[4]; [18],10.3 min
same,peak exotherm,[4]; [19],454 ° F.
same,time to peak exotherm,[4]; [19],6.0 min
same,oxidizing of iodide ion,[12],oxidized iodide ion to free iodine
"COC1(N=NC(C)(C)C)CCCCC1 [XXXV, 1-t-butylazo-1-methoxycyclohexane]",Minutes to Peak Exotherm,[4]; bath 145° C.,5.7 min
same,peak exotherm,[4]; bath 145° C.,396 ° F
same,Barcol Hardness,[1]; bath 145° C.,40
"CCCCC(C)(CC(C)C)N=NC(C)(C)C (centres unmarked) [Example LXI, 4-t-Butylazo-2,4-dimethyloctane]",Barcol Hardness,[4]; bath 130° C.,40
same,Minutes to Peak Exotherm,[4]; bath 130° C.,11.1 min
same,peak exotherm,[1]; bath 130° C.,382 ° F
"CC(C)(C)N=NC(C)(C#N)CCC(=O)O (stereo not drawn) [Example X, alpha-tert.-butylazo-alpha-methyl-gammacarboxybutyronitrile]",temperature at which it begins to evolve nitrogen,onset,85 °C
same,hardness of cured resin,[4],very hard
same,peak exotherm,[4]; [15],410 ° F.
same,time to peak exotherm,[4]; [15],8.5 min
same,peak exotherm,[4]; [20],422 ° F.
same,time to peak exotherm,[4]; [20],3.8 min
same,conversion of monomer to polymer,[9],94%
"COC(C)(C)CC(C)(N=NC(C)(C)C)OC (centres unmarked) [XXXVIII, 2-t-butylazo-4-methyl-2,4-dimethoxypentane]",f1 /f2 efficiency rating,"[2]; 115° C., standard f2 di-t-butyl peroxide",0.38
"COC(C)(C)CC(C)(N=NC(C)(C)C)N=[N+]=[N-] (centres unmarked) [XLIV, 2-t-butylazo-2-azido-4-methyl-4-methoxypentane]",f1 /f2 efficiency rating,[2]; [17],1.19
